According to PMC4484790 (Virology, 2014):

How the values were obtained:
[1] = PK of orally administered TFV; assay type: in vivo
HIV [2] = conditions: Partners PrEP study; oral; serodiscordant couples; ref Baeten et al., 2012; cited from earlier work
in vivo = assay: in vivo; design: species or system non-humanized mice; conditions: female, mouse, po, 61.5 mg/kg
HIV [3] = conditions: hu-mice; oral administration at allometric dosing levels; ref Neff et al., 2010; cited from earlier work
[4] = female, BALB/c Rag1−/− or Rag2−/−γc−/− (humanized, Hu-HSC RAG-hu), mouse, intestinal tissue, po, 61.5 mg/kg
[5] = female, BALB/c Rag1−/− or Rag2−/−γc−/− (humanized, Hu-HSC RAG-hu), mouse, plasma, po, 61.5 mg/kg
[6] = female, BALB/c Rag1−/− or Rag2−/−γc−/− (humanized, Hu-HSC RAG-hu), mouse, rectal tissue, po, 61.5 mg/kg
[7] = female, BALB/c Rag1−/− or Rag2−/−γc−/− (humanized, Hu-HSC RAG-hu), mouse, vaginal tissue, po, 61.5 mg/kg

CC(Cn1cnc2c(N)ncnc21)OCP(=O)(O)OP(=O)(O)OP(=O)(O)O (stereo in doubt) [TFV-DP, Tenofovir Diphosphate]
AUC24h intestinal:rectal tissue ratio ([1]; hu-mice, TFV oral 61.5 mg/kg x 5 days): 2.45

C[C@H](Cn1cnc2c(N)ncnc21)OCP(=O)(O)O [TFV, Tenofovir]
reduction in HIV-1 incidence (HIV [2]): 67%
AUC(0-t) ([1]; female, BALB/c Rag1−/− or Rag2−/−γc−/− (humanized, Hu-HSC RAG-hu), mouse, in vivo, po, 61.5 mg/kg): 11300 ng·h/mL
Cmax ([1]; female, BALB/c Rag1−/− or Rag2−/−γc−/− (humanized, Hu-HSC RAG-hu), mouse, in vivo, po, 61.5 mg/kg, Cmax (median)): 1990 ng/mL
Tmax [1, 4]: 2 h
half-life [1, 4]: 13.9 h
Tmax [1, 5]: 2 h
half-life [1, 5]: 17 h
Tmax [1, 6]: 2 h
half-life [1, 6]: 13.5 h
Tmax [1, 7]: 2 h
half-life [1, 7]: 9 h
AUC(0-t) (in vivo): 17300 ng·h/mL
Tmax (in vivo): 8 h
Cmax (in vivo; Cmax (median)): 1550 ng/mL

Maraviroc [MVC]
protection against HIV vaginal challenge (HIV [3]): fully protective
